The source of these data is ChEMBL document CHEMBL3616467, “One-pot synthesis of new triazole--Imidazo[2,1-b][1,3,4]thiadiazole hybrids via click chemistry and evaluation of their antitubercular activity” (Bioorg Med Chem Lett, 2015).

Usually MIC stands for the smallest concentration in the dilution series that meets the test's criterion for growth inhibition.

Series [1] concerns Mycobacterium tuberculosis. Nature of the series: Antitubercular activity against Mycobacterium tuberculosis H37Rv ATCC 27294 after 28 days by agar dilution method. The format is functional. The note with it: H37Rv ATCC 27294, 672 h. In general terms: Agar dilution tests growth on a series of plates holding different concentrations.
Series [2] can be described thus: Cytotoxicity against mouse NIH/3T3 cells assessed as growth inhibition at 50 ug/ml after 48 hrs by MTT assay relative to control. The format is cell-based, NIH3T3. The settings on record: read-out: GI. A general note: Formazan colour is commonly taken as a measure of viable cells.

Converted amounts (≈) assume the structure as drawn.

In series [1], `COc1ccc(-c2nc3sc(C)nn3c2COCc2cn(Cc3ccccc3F)nn2)cc1` showed an MIC of 25 µg/mL (≈ 53.8 µM).

In turn, `CCOC(=O)Cn1cc(COCc2c(-c3ccc(OC)cc3)nc3sc(C)nn23)nn1` gave an MIC in series [1] of 50 µg/mL (≈ 113 µM).

`CCn1cc(COCc2c(-c3ccc(OC)cc3)nc3sc(C)nn23)nn1` had an MIC in series [1] of 25 µg/mL (≈ 65 µM).

Consider `COc1ccc(-c2nc3sc(C)nn3c2COCc2cn(CC#N)nn2)cc1`, for which, in series [1], the lowest concentration to inhibit growth (MIC) was 50 µg/mL (≈ 126 µM).

In turn, `COc1ccc(-c2nc3sc(C)nn3c2COCc2cn(Cc3ccc(F)cc3)nn2)cc1` came in with an MIC in series [1] of 12.5 µg/mL (≈ 26.9 µM). Further, in series [2], the inhibition at 48 h, 50 ug/ml worked out at 19.1%.

On to `COc1ccc(-c2nc3sc(C)nn3c2COCc2cn(Cc3ccccc3)nn2)cc1`, for which the MIC in series [1] amounted to 3.12 µg/mL (≈ 7 µM). The inhibition at 48 h, 50 ug/ml in series [2] turned out to be 22.7%.

As to `CCOC(=O)Cn1cc(COCc2c(-c3ccc(C)cc3)nc3sc(C)nn23)nn1`, in series [1], the MIC came to 50 µg/mL (≈ 117 µM).

In series [1], `CCn1cc(COCc2c(-c3ccc(C)cc3)nc3sc(C)nn23)nn1` yielded an MIC of 25 µg/mL (≈ 67.8 µM).

As to `Cc1ccc(-c2nc3sc(C)nn3c2COCc2cn(CC#N)nn2)cc1`, the MIC in series [1] came to 25 µg/mL (≈ 65.9 µM).

`Cc1ccc(-c2nc3sc(C)nn3c2COCc2cn(Cc3ccccc3F)nn2)cc1` yielded an MIC in series [1] of 50 µg/mL (≈ 111 µM).

`Cc1ccc(-c2nc3sc(C)nn3c2COCc2cn(Cc3ccc(F)cc3)nn2)cc1`: the MIC in series [1] amounted to 50 µg/mL (≈ 111 µM).

In turn, `Cc1ccc(-c2nc3sc(C)nn3c2COCc2cn(Cc3ccccc3)nn2)cc1` showed an MIC in series [1] of 25 µg/mL (≈ 58.1 µM).

In turn, `CCOC(=O)Cn1cc(COCc2c(-c3ccc(Cl)cc3)nc3sc(C)nn23)nn1` returned an MIC in series [1] of 12.5 µg/mL (≈ 28 µM). The inhibition at 48 h, 50 ug/ml in series [2] turned out to be 28.2%.

On to `CCn1cc(COCc2c(-c3ccc(Cl)cc3)nc3sc(C)nn23)nn1`, for which the MIC in series [1] amounted to 3.12 µg/mL (≈ 8.04 µM). The inhibition at 48 h, 50 ug/ml in series [2] came to 20.1%.

With `Cc1nn2c(COCc3cn(C(C)C)nn3)c(-c3ccc(Cl)cc3)nc2s1`, the MIC in series [1] was determined as 50 µg/mL (≈ 124 µM).

In series [1], `Cc1nn2c(COCc3cn(CC#N)nn3)c(-c3ccc(Cl)cc3)nc2s1` yielded an MIC of 6.25 µg/mL (≈ 15.6 µM). Further, the inhibition at 48 h, 50 ug/ml in series [2] turned out to be 27.3%.

With `Cc1nn2c(COCc3cn(Cc4ccccc4F)nn3)c(-c3ccc(Cl)cc3)nc2s1`, inhibition of growth in series [1] (MIC) required 50 µg/mL (≈ 107 µM).

Molecule `Cc1nn2c(COCc3cn(Cc4ccc(F)cc4)nn3)c(-c3ccc(Cl)cc3)nc2s1` displayed an MIC in series [1] of 25 µg/mL (≈ 53.3 µM).

The molecule `Cc1nn2c(COCc3cn(Cc4ccccc4)nn3)c(-c3ccc(Cl)cc3)nc2s1` came in with an MIC in series [1] of 25 µg/mL (≈ 55.4 µM).

For the molecule `Cc1nn2c(COCc3cn(CC(=O)O)nn3)c(-c3ccc(Cl)cc3)nc2s1`, the lowest concentration to inhibit growth in series [1] (MIC) was 50 µg/mL (≈ 119 µM).

In the case of `CC[C@@H](CO)NCCN[C@@H](CC)CO` [ETHAMBUTOL], the MIC in series [1] worked out at 3.12 µg/mL (≈ 15.3 µM).

In turn, `NNC(=O)c1ccncc1` [ISONIAZID] yielded an MIC in series [1] of 0.1 µg/mL (≈ 0.729 µM).

In series [1], `NC(=O)c1cnccn1` [PYRAZINAMIDE] came in with an MIC of 50 µg/mL (≈ 406 µM).
